According to patent US20070122341A1, “Benzylideneaniline derivatives and their radioisotope labeled compounds for binding and imaging of beta-amyloid plaques” (SEOUL NATIONAL UNIVERSITY INDUSTRY FOUNDATION, priority 2005, published 2007):
pKi: −log10 of the molar value. Several values for one entry are separate records, joined by “and”; a condition that tells them apart may be missing. Equal entries are not always repeated.

Assays:
[1] = target: T1, Aβ1-40 aggregates (Homo sapiens, UniProt P05067); experiment: In vitro binding assay with Aβ1-40 aggregates, inhibition of [125I]3'-I-BTA-1 binding; conditions: for pKi: unlabeled compounds, Aβ1-40 aggregates 20 nM, [125I]3'-I-BTA-1 0.04 nM, 3 hr room temperature, Ki calculated from IC50; for affinity to Aβ1-40 (in words): conclusion from Ki values of Table 2
T1 construct: purchased Sigma
Description: Aggregated peptides were prepared using the solid form of peptides Aβ1-40 (purchased from Sigma) by a literature method (Klunk, W. E.; Wang, Y.; Huang, G-F.; Debnath, M. L.; Holt D. P.; Mathis, C. A. Uncharged thioflavin-T derivatives bind to amyloid-beta protein with high affinity and readily enter the brain. Life Sci. 2001, 69(13), […]). The aggregated Aβ1-40 peptide was aliquoted and stored at −70° C. Binding studies were performed according to the procedure described in the literature with some modifications (Zhuang, Z.-P.; Kung, M.-P.; Wilson, A.; Lee, C.-W.; Plossl, K.; Hou, C.; Holtzman, D. M.; Kung, H. F.; Structure-activity relationship of imidazo[1,2-a]pyridines as ligands for detecting β-amyloid plaques in the brain. J. Med. Chem. 2003; 46(2), 237-243). The Ki values of benzylideneaniline derivatives were evaluated with Aβ1-40 aggregates.
The reaction mixtures containing 100 μL of Aβ^1-40 aggregates (20 nM in the final mixture), 100 μL of benzylideneaniline derivatives (10^−5-10^−10 M in 50% ethanol), 100 μL of [^125I]3′-I-BTA-1 in 50% ethanol (0.04 nM in the final mixture), and 700 μL of phosphate buffered saline (pH=7.2) were incubated for 3 hr at room temperature, filtered through Whatman GF/B glass filters and washed twice with 3 mL of 10% EtOH. The filters were counted in a gamma-counter. Nonspecific binding was determined by reacting in the presence of 10 μM stilbene.

[2] = Biodistribution in normal mice; format: in vivo; conditions: 18F-labeled compounds, tail vein injection, ICR male mice; ratio of brain uptake (% ID/g) at 2 min over 30 min
Description: Biodistribution study of the ^18F-labeled compounds of Example 7 was performed with ICR male mice (weight range 27-28 g). 0.1 mL of a saline solution containing each ^18F-labeled benzylideneaniline compound A, B, C, D, E or F (37-74 kBq) was injected through the tail vein. The mice were sacrificed by decapitation at 2 min and 30 min time points post injection. The organs of interest, including blood, muscle, fat, heart, lung, liver, spleen, stomach, intestine, brain and bone, were separated and weighed, and the remaining radioactivity was counted with a NaI well counter.

T1 sequence (P05067 672-711): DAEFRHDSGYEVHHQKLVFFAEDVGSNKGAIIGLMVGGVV

| SMILES | pKi [1] | Brain uptake ratio [2] | affinity to Aβ1-40 (in words) [1] | melting point [°C] |
| --- | --- | --- | --- | --- |
| O=C(O)c1cc(/N=C/c2ccc(F)cc2)ccc1O [F, 5-[(4-fluorobenzylidene)amino]-2-hydroxybenzoic acid] | < 5.00 | 11.0 ± 2.0 |  |  |
| Oc1ccc(/N=C/c2ccc(F)cc2)cc1 [D] | < 5.00 | 24.3 and 24.3 ± 4.6 | low binging affinity | 148 to 149 |
| Nc1ccc(/N=C/c2ccc(F)cc2)cc1 [Compound A, N-(4-fluorobenzylidene)benzene-1,4-diamine] | 6.52 | 8.7 ± 1.7 | have affinity to Aβ1-40 | 169 to 170 |
| CNc1ccc(/N=C/c2ccc(F)cc2)cc1 [B, N-(4-fluorobenzylidene)-N′-methylbenzene-1,4-diamine] | 5.98 | 5.4 ± 0.5 | have affinity to Aβ1-40 | 106 to 107 |
| CN(C)c1ccc(/N=C/c2ccc(F)cc2)cc1 [C, N-(4-fluorobenzylidene)-N′,N′-dimethylbenzene-1,4-diamine] | 6.83 | 2.9 ± 0.5 | have affinity to Aβ1-40 | 191 to 192 |
| COc1ccc(/N=C/c2ccc(F)cc2)cc1 [E, (4-fluorobenzylidene)-(4-methoxyphenyl)amine] | < 5.00 | 4.2 ± 0.9 |  | 92 to 93 |
